Patent US11142526B2, “Spirocycle compounds and methods of making and using same” (H. Lundbeck A/S, priority 2017, dated 2021)
pIC50: −log10 of the molar value. Read-outs that look alike come from different tables or passages of the source.

Tests used:
[1] = target: MAGL (Homo sapiens (Human), UniProt Q99685); assay: In vitro competitive activity-based protein profiling (gel-based, FP-Rh or HT-01 probe); type: biochemical
Procedure: In Vitro Competitive Activity-Based Protein Profiling.
Proteomes (human prefrontal cortex or cell membrane fractions) (50 μL, 1.0 mg/mL total protein concentration) were preincubated with varying concentrations of inhibitors at 37° C. After 30 min, FP-Rh or HT-01 (1.0 μL, 50 μM in DMSO) was added and the mixture was incubated for another 30 min at room temperature. Reactions were quenched with SDS loading buffer (15 μL—4×) and run on SDS-PAGE.

[2] = target: MAGL (Mus musculus (Mouse), UniProt O35678); assay: In vitro competitive activity-based protein profiling, mouse brain proteome; type: biochemical; conditions: for inhibition at 1 µM: mouse; for pIC50: mouse brain
[3] = human PC3, read-out: MAGL % Inhibition at 1 μM (human PC3)
[4] = human PFC (prefrontal cortex), read-out: MAGL % Inhibition at 1 μM (human PFC)
[5] = human PC3, read-out: MAGL Human PC3 (IC50)

MAGL (Homo sapiens (Human), UniProt Q99685), sequence (Q99685 whole entry): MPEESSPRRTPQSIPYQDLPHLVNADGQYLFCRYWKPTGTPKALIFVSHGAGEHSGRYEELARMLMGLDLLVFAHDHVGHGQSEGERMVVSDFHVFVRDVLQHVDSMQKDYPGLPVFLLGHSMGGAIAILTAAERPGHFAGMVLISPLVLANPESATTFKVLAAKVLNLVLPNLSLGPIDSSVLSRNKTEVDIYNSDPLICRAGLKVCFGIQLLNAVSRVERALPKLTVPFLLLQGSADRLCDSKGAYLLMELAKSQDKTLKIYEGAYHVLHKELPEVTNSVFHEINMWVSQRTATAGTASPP
MAGL (Mus musculus (Mouse), UniProt O35678), sequence (O35678 whole entry): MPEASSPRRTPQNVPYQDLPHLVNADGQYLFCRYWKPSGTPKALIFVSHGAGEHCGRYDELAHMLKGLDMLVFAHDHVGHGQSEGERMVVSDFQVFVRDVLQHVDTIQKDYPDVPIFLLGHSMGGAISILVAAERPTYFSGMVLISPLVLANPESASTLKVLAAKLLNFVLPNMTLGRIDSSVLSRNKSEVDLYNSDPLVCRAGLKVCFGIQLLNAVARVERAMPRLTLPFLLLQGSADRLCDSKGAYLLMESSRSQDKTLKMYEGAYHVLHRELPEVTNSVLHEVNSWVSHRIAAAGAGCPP

Cc1cc(C)n2nc(C)c(C(=O)N3CCCC34CCN(C(=O)OC(C(F)(F)F)C(F)(F)F)CC4)c2n1 [Example 172, 1,1,1,3,3,3-Hexafluoropropan-2-yl 1-(2,5,7-trimethylpyrazolo [1,5-a]pyrimidine-3-carbonyl)-1,8-diazaspiro[4.5] decane-8-carboxylate]
inhibition at 1 µM [1, 3]: > 75%
inhibition at 1 µM [1, 4]: > 75%
pIC50 [1, 5]: > 7.00
inhibition at 1 µM [2]: > 75%

O=C(OC(C(F)(F)F)C(F)(F)F)N1CCC2(CCCN2Cc2cc3cc(Cl)c(Cl)cc3[nH]2)CC1 [Example 112, 1,1,1,3,3.3-Hexafluoropropan-2-yl 1-((5,6-dichloro-1H-indol-2-yl)methyl)-1,8-diazaspiro[4.5] decane-8-carboxylate]
inhibition at 1 µM [1, 4]: > 75%
inhibition at 1 µM [2]: > 75%

O=C(OC(C(F)(F)F)C(F)(F)F)N1CCC2(CCCN2C(=O)C2(c3ccnc(C4CC4)n3)CC2)CC1 [Example 201, 1,1,1,3,3,3-Hexafluoropropan-2-yl 1-(1-(2-cyclopropylpyrimidin-4-yl)cyclopropane-1-carbonyl)-1,8-diazaspiro [4.5]decane-8-carboxylate]
inhibition at 1 µM [1, 3]: > 75%
inhibition at 1 µM [1, 4]: > 75%
pIC50 [1, 5]: > 7.00
inhibition at 1 µM [2]: > 75%

O=C(OC(C(F)(F)F)C(F)(F)F)N1CCC2(CCCN2C(=O)c2cnn3c2OCCC3)CC1 [Example 149, 1,1,1,3,3,3-Hexafluoropropan-2-yl 1-(6,7-dihydro-5H-pyrazolo[5,1-b] [1,3]oxazine-3-carbonyl)-1.8-diazaspiro[4.5] decane-8-carboxylate]
inhibition at 1 µM [1, 3]: > 75%
inhibition at 1 µM [1, 4]: > 75%
pIC50 [1, 5]: > 7.00
inhibition at 1 µM [2]: > 75%

Cc1c(Cl)c(C(=O)N2CCCC23CCN(C(=O)OC(C(F)(F)F)C(F)(F)F)CC3)nn1C [Example 131, 1,1,1,3,3,3-Hexafluoropropan-2-yl 1-(4-chloro-1,5-dimethyl-1H-pyrazole-3-carbonyl)-1,8-diazaspiro[4.5] decane-8-carboxylate]
inhibition at 1 µM [1, 4]: > 75%
pIC50 [1, 5]: > 7.00
inhibition at 1 µM [2]: > 75%

O=C(OC(C(F)(F)F)C(F)(F)F)N1CCC2(CCCN2C(=O)c2cn3c(n2)CN(C2CCOCC2)CC3)CC1 [Example 162, 1,1,1,3,3,3-Hexafluoropropan-2-yl 1-(7-(tetrahydro-2H-pyran-4-yl)-5,6,7,8-tetrahydroimidazo [1,2-a]pyrazine-2-carbonyl)-1,8-diazaspiro[4.5] decane-8-carboxylate]
inhibition at 1 µM [1, 3]: > 75%
pIC50 [1, 5]: > 7.00
inhibition at 1 µM [2]: > 75%

CN(C(=O)C(F)(F)c1cnccn1)C1(C)CCN(C(=O)OC(C(F)(F)F)C(F)(F)F)CC1 [Example 198, 1,1,1,3,3,3-Hexafluoropropan-2-yl 4-(2,2-difluoro-N-methyl-2-(pyrazin-2-yl)acetamido)-4-methylpiperidine-1-carboxylate]
inhibition at 1 µM [1, 3]: > 75%
inhibition at 1 µM [1, 4]: > 75%
inhibition at 1 µM [2]: > 75%

CCN(C(=O)c1cn2c(n1)CN(C1CC1)CC2)C1(C)CCN(C(=O)OC(C(F)(F)F)C(F)(F)F)CC1 [Example 178, 1,1,1,3,3,3-Hexafluoropropan-2-yl 4-(7-cyclopropyl-N-ethyl-5,6,7,8-tetrahydroimidazo [1,2-a]pyrazine-2-carboxamido)-4-methylpiperidine-1-carboxylate]
inhibition at 1 µM [1, 3]: > 75%
inhibition at 1 µM [1, 4]: > 75%
inhibition at 1 µM [2]: > 75%

O=C(OC(C(F)(F)F)C(F)(F)F)N1CCC2(CCCN2C(=O)c2cncnc2)CC1 [Example 68, 1,1,1,3,3,3-Hexafluoropropan-2-yl 1-(pyrimidine-5-carbonyl)-1,8-diazaspiro[4.5] decane-8-carboxylate]
inhibition at 1 µM [1, 4]: 25 to 75%
inhibition at 1 µM [2]: < 25%

CC1(NC(=O)c2cn3c(n2)CN(c2cnccn2)CC3)CCN(C(=O)OC(C(F)(F)F)C(F)(F)F)CC1 [Example 29, 1,1,1,3,3,3-Hexafluoropropan-2-yl 4-methyl-4-(7-(pyrazin-2-yl)-5,6,7,8-tetrahydroimidazo[1,2-a]pyrazine-2-carboxamido)piperidine-1-carboxylate]
inhibition at 1 µM [1, 3]: > 75%
inhibition at 1 µM [2]: > 75%

O=C(OC(C(F)(F)F)C(F)(F)F)N1CCC2(CCCN2C(=O)c2cc3nc(C(F)F)cc(C(F)F)n3n2)CC1 [Example 166, 1,1,1,3,3,3-Hexafluoropropan-2-yl 1-(5,7-bis(difluoromethyl)pyrazolo [1,5-a]pyrimidine-2-carbonyl)-1,8-diazaspiro [4.5]decane-8-carboxylate]
inhibition at 1 µM [1, 3]: > 75%
inhibition at 1 µM [1, 4]: > 75%
inhibition at 1 µM [2]: > 75%

COc1ncc(CN2CCCC23CCN(C(=O)OC(C(F)(F)F)C(F)(F)F)CC3)s1 [Example 138, 1,1,1,3,3,3-Hexafluoropropan-2-yl 1-((2-methoxythiazol-5-yl)methyl)-1,8-diazaspiro[4.5] decane-8-carboxylate]
inhibition at 1 µM [1, 4]: > 75%
pIC50 [1, 5]: > 7.00
inhibition at 1 µM [2]: > 75%

CC(=O)N1CCn2cc(C(=O)N(C)C3(C)CCN(C(=O)OC(C(F)(F)F)C(F)(F)F)CC3)nc2C1 [Example 26, 1,1,1,3,3,3-Hexafluoropropan-2-yl 4-(7-acetyl-N-methyl-5,6,7,8-tetrahydroimidazo[1,2-a]pyrazine-2-carboxamido)-4-methylpiperidine-1-carboxylate]
inhibition at 1 µM [1, 3]: > 75%
inhibition at 1 µM [1, 4]: > 75%
inhibition at 1 µM [2]: 25 to 75%

Cc1cc(Cl)c2nc(CN3CCCC34CCN(C(=O)OC(C(F)(F)F)C(F)(F)F)CC4)cn2c1 [Example 115, 1,1,1,3,3,3-Hexafluoropropan-2-yl 1-((8-chloro-6-methylimidazo [1,2-a]pyridin-2-yl)methyl)-1,8-diazaspiro[4.5] decane-8-carboxylate]
inhibition at 1 µM [1, 4]: > 75%
pIC50 [1, 5]: > 7.00
inhibition at 1 µM [2]: > 75%

O=C(OC(C(F)(F)F)C(F)(F)F)N1CCC2(CCCN2C(=O)c2cnn(Cc3ccccc3)c2)CC1 [Example 88, 1,1,1,3,3,3-Hexafluoropropan-2-yl 1-(1-benzyl-1H-pyrazole-4-carbonyl)-1,8-diazaspiro[4.5] decane-8-carboxylate]
pIC50 [1, 5]: > 7.00
inhibition at 1 µM [2]: > 75%
pIC50 [2]: > 7.00

O=C(OC(C(F)(F)F)C(F)(F)F)N1CCC2(CCCN2C(=O)c2cnn3ccccc23)CC1 [Example 146, 1,1,1,3,3,3-Hexafluoropropan-2-yl 1-(pyrazolo[1,5-a]pyridine-3-carbonyl)-1,8-diazaspiro[4.5] decane-8-carboxylate]
inhibition at 1 µM [1, 3]: > 75%
inhibition at 1 µM [1, 4]: > 75%
inhibition at 1 µM [2]: > 75%

O=C(OC(C(F)(F)F)C(F)(F)F)N1CCC2(CCCN2C(=O)c2ccc3ocnc3c2)CC1 [Example 87, 1,1,1,3,3.3-Hexafluoropropan-2-yl 1-(benzo[d]oxazole-5-carbonyl)-1,8-diazaspiro[4.5] decane-8-carboxylate]
pIC50 [1, 5]: > 7.00
inhibition at 1 µM [2]: > 75%
pIC50 [2]: > 7.00

COc1cnc(C(F)(F)C(=O)N(C)C2(C)CCN(C(=O)OC(C(F)(F)F)C(F)(F)F)CC2)cn1 [Example 199, 1,1,1,3,3,3-Hexafluoropropan-2-yl 4-(2,2-difluoro-2-(5-methoxypyrazin-2-yl)-N-methylacetamido)-4-methylpiperidine-1-carboxylate]
inhibition at 1 µM [1, 3]: > 75%
inhibition at 1 µM [1, 4]: > 75%
pIC50 ([1]; human PFC (prefrontal cortex), read-out: MAGL Human PFC (IC50)): > 7.00
inhibition at 1 µM [2]: > 75%

Cn1cc(Cl)c(CN2CCCC23CCN(C(=O)OC(C(F)(F)F)C(F)(F)F)CC3)n1 [Example 133, 1,1,1,3,3.3-Hexafluoropropan-2-yl 1-((4-chloro-1-methyl-1H-pyrazol-3-yl)methyl)-1,8-diazaspiro[4.5] decane-8-carboxylate]
inhibition at 1 µM [1, 4]: > 75%
pIC50 [1, 5]: > 7.00
inhibition at 1 µM [2]: > 75%

Cc1c(C(=O)N2CCCC23CCN(C(=O)OC(C(F)(F)F)C(F)(F)F)CC3)[nH]c2ccc(F)cc12 [Example 104, 1,1,1,3,3,3-Hexafluoropropan-2-yl 1-(5-fluoro-3-methyl-1H-indole-2-carbonyl)-1,8-diazaspiro[4.5]decane-8-carboxylate]
pIC50 [1, 5]: > 7.00
inhibition at 1 µM [2]: > 75%
pIC50 [2]: > 7.00

CCC(C)(C)C(=O)N1CCn2cc(C(=O)NC3(C)CCN(C(=O)OC(C(F)(F)F)C(F)(F)F)CC3)nc2C1 [Example 193, 1,1,1,3,3,3-Hexafluoropropan-2-yl 4-(7-(2,2-dimethylbutanoyl)-5,6,7,8-tetrahydroimidazo[1,2-a]pyrazine-2-carboxamido)-4-methylpiperidine-1-carboxylate]
inhibition at 1 µM [1, 3]: > 75%
pIC50 [1, 5]: > 7.00
inhibition at 1 µM [2]: > 75%

O=C(OC(C(F)(F)F)C(F)(F)F)N1CCC2(CCCN2C(=O)c2cn3ccncc3n2)CC1 [Example 159, 1,1,1,3,3,3-Hexafluoropropan-2-yl 1-(imidazo[1,2-a]pyrazine-2-carbonyl)-1,8-diazaspiro[4.5] decane-8-carboxylate]
inhibition at 1 µM [1, 4]: > 75%
pIC50 [1, 5]: > 7.00
inhibition at 1 µM [2]: > 75%

O=C(OC(C(F)(F)F)C(F)(F)F)N1CCC2(CCCN2C(=O)c2cc3n(n2)CCN(CC2CC2)C3)CC1 [Example 156, 1,1,1,3,3,3-Hexafluoropropan-2-yl 1-(5-(cyclopropylmethyl)-4,5,6,7-tetrahydropyrazolo [1,5-a]pyrazine-2-carbonyl)-1,8-diazaspiro[4.5] decane-8-carboxylate]
inhibition at 1 µM [1, 3]: > 75%
inhibition at 1 µM [1, 4]: > 75%
pIC50 [1, 5]: > 7.00
inhibition at 1 µM [2]: > 75%
